In general, IC50 refers to the concentration that gives 50% inhibition.

Results on 18 compounds are retold here after patent US5328909A, “Cyclopropenone derivatives” (Mitsubishi Kasei Corporation, priority 1991, dated 1994).

Molecules are shown by their SMILES. Where two headings read alike, the source gives them in different places.

Common to all, as to format: biochemical
The target in one assay is T1, cathepsin L (Rattus norvegicus, UniProt P07154).
T1 construct: Capthesin L was purified from rat kidney; from tissue; host or cells: rat kidney
Put plainly: Thiol protease inhibitory activity against cathepsin L purified from rat kidney. Particulars: Table 3; rat kidney enzyme; read-out: IC50 (μM) cathepsin L. Here is the method:
(§1) Inhibitory activity against papain (P-3125, Sigma) and cathepsin B (C-6286, Sigma) was assayed according to the method described in a literature [Biochemical Journal, 201, 189 (1982)]. Capthesin L was purified from rat kidney according to the method in a literature [Journal of Biochemistry, 100, 35 (1986)], and the inhibitory activity against it was assayed in the same manner as described in the above literature for cathepsin B. Further, m-calpain was purified from rat brain according to a known method [Journal of Biological Chemistry, 254, p.3210 (1984)] and the inhibitory activity against it was assayed by a method described in a literature [Journal of Biological Chemistry, 259, 12489 (1984)]. The results are showing in Tables 3 and 4. It is evident from Tables 3 and 4 that the compounds in the present invention have a potent inhibitory activity against thiol proteases such as papain, cathepsin B, cathepsin L, m-calpain or the like.

For the next assay, the target named is T2, papain (Carica papaya, UniProt P00784).
T2 sequence (P00784 134-345): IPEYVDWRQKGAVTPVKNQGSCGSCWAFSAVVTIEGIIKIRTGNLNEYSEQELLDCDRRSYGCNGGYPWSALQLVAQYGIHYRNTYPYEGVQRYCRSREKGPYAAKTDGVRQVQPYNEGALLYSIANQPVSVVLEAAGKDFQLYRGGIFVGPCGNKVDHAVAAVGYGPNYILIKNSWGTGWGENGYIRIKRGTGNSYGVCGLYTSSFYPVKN
Briefly: Thiol protease inhibitory activity against papain (P-3125, Sigma). As to conditions: Table 3; read-out: IC50 (μM) papain. Here is the method: as §1

A further assay addresses T3, m-calpain (Rattus norvegicus, UniProt Q07009).
T3 construct: m-calpain was purified from rat brain; from tissue; host or cells: rat brain
T3 sequence (Q07009 20-700 limits assumed): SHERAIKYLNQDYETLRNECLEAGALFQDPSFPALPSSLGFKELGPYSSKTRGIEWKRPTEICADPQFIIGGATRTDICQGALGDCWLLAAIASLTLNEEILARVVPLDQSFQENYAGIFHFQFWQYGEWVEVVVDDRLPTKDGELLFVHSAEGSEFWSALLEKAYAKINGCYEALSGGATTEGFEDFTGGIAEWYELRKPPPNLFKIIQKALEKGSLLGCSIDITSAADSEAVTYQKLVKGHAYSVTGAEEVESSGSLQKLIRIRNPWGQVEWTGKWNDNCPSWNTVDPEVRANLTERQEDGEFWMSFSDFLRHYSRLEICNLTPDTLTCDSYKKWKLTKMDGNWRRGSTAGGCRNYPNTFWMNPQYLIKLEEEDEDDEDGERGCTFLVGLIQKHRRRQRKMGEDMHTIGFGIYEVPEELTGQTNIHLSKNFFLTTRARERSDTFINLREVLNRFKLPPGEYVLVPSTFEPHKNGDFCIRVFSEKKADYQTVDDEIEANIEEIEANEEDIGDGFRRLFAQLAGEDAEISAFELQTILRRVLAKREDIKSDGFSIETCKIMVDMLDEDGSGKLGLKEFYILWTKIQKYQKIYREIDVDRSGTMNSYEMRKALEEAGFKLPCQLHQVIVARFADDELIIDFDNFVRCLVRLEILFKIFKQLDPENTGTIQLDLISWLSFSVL
T3 sequence (Q64537 1-270 partner): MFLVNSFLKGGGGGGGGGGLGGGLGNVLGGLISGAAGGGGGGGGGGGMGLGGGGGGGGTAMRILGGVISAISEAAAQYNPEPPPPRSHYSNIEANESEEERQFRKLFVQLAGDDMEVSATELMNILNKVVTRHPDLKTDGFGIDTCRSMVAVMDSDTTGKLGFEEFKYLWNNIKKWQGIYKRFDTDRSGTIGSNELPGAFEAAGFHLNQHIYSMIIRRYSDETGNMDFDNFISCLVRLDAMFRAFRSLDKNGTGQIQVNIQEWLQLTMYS
Briefly: Thiol protease inhibitory activity against m-calpain purified from rat brain. As to conditions: rat brain enzyme. Here is the method:
as §1

A further assay concerns the target T4, cathepsin B (Bos taurus, UniProt P07688).
T4 construct: purchased Sigma C-6286
Briefly: Thiol protease inhibitory activity against cathepsin B (C-6286, Sigma). As to conditions: Table 3; read-out: IC50 (μM) cathepsin B. Here is the method:
as §1

Setting [1] is: Table 3, read-out: IC50 (μM) m-calpain.
The mark [2] stands for this setting: Table 4, read-out: Inhibitory activity against m-calpain IC50.

T1 sequence (P07154 114-288 limits assumed): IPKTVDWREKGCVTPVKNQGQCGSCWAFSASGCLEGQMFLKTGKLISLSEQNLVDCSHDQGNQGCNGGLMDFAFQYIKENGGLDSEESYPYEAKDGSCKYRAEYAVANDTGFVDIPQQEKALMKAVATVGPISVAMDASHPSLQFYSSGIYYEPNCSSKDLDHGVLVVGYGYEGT
T1 sequence (P07154 291-334 limits assumed): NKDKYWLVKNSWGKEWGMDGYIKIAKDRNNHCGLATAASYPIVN

Consider `CC(C)C[C@H](NC(=O)OCC1CCCCC1)C(=O)N[C@@H](C(C)C)[C@H](O)c1c(-c2ccccc2)c1=O` [2 (No. 77), 2-[(1R, 2S)-2-{(S)-2-cyclohexylmethoxycarbonylamino-4-methylvalerylamino}-1-hydroxy-3-methylbutyl]-3-phenylcyclopropenone], for which the IC50 turned out to be 0.0012 µM on cathepsin L, 22 µM at papain, 3.3 µM at m-calpain (setting [1]) and 0.044 µM at cathepsin B.

`CC(C)C[C@H](NC(=O)OCC1CCCCC1)C(=O)N[C@@H](C(C)C)C(O)c1cc1=O` (stereo partly drawn) [4 (No. 4), 2-[(2S)-2-((S)-2-cyclohexylmethoxycarbonylamino-4-methylvalerylamino)-1-hydroxy-3-methylbutyl]cyclopropenone]: the IC50 at papain came to 5.8 µM; at m-calpain (setting [1]), 0.5 µM; on cathepsin B, 0.41 µM.

For the compound `CC(C)C[C@H](NC(=O)OCc1ccccc1)C(=O)N[C@@H](CC(C)C)C(O)c1cc1=O` (stereo partly drawn) [5 (No. 10), 2-[(2S)-2-((S)-2-benzyloxycarbonylamino-4-methylvalerylamino)-1-hydroxy-4-methylpentyl]cyclopropenone], the IC50 at cathepsin L is 0.75 µM; at papain, over 100 µM; on m-calpain (setting [1]), 2.3 µM; at cathepsin B, 3 µM.

As for `CCCC[C@H](NC(=O)[C@H](CC(C)C)NC(=O)OCC1CCCCC1)C(O)c1cc1=O` (stereo partly drawn) [6 (No. 15), 2-[(2S)-2-((S)-2-cyclohexylmethoxycarbonylamino-4-methylvalerylamino)-1-hydroxyhexyl]cyclopropenone], the IC50 at cathepsin L stood at 0.54 µM; on papain it was 0.076 µM; at m-calpain (setting [1]), 0.81 µM; on cathepsin B, 0.16 µM.

For `CCCC[C@H](NC(=O)[C@H](CC(C)C)NC(=O)OCc1ccccc1)C(O)c1cc1=O` (stereo partly drawn) [7 (No. 16), 2-[(2S)-2-((S)-2-benzyloxycarbonylamino-4-methylvalerylamino)-1-hydroxyhexyl]cyclopropenone], the IC50 turned out to be 0.24 µM on cathepsin L, 0.14 µM at papain, 2.4 µM at m-calpain (setting [1]) and 0.32 µM on cathepsin B.

For `CC(C)C[C@H](NC(=O)OCc1ccccc1)C(=O)N[C@@H](C(C)C)[C@@H](O)c1c(-c2ccccc2)c1=O` [25 (No. 83), 2-[(1S, 2S)-2-((S)-2-benzyloxycarbonylamino-4-methylvalerylamino)-1-hydroxy-3-methylbutyl]-3-phenylcyclopropenone], the IC50 amounted to 5.7 µM at cathepsin L, 13 µM at papain, 2.1 µM at m-calpain (setting [1]) and 32 µM at cathepsin B.

For `CC(C)C[C@H](NC(=O)OCc1ccccc1)C(=O)N[C@@H](C(C)C)C(O)c1c(-c2ccccc2)c1=O` (stereo partly drawn) [26 (No. 83), 2-[(2S)-2-((S)-2-benzyloxycarbonylamino-4-methylvalerylamino)-1-hydroxy-3-methylbutyl]-3-phenylcyclopropenone], the IC50 on cathepsin L was found to be 5.8 µM; on papain, 4.2 µM; at m-calpain (setting [1]) it was 1.6 µM; on cathepsin B, 43 µM.

As for `COc1ccc(S(=O)(=O)N[C@@H](CC(C)C)C(=O)N[C@@H](C(C)C)[C@@H](O)c2c(-c3ccccc3)c2=O)cc1` [87 (No. 257), 2-[(1S, 2S)-1-hydroxy-2-{(S)-2-(4-methoxyphenylsulfonylamino)-4-methylvalerylamino}-3-methylbutyl]-3-phenylcyclopropenone], at m-calpain (setting [2]), the half-inhibitory concentration (IC50) was 1 µM.

With `CC(C)C[C@H](NS(=O)(=O)c1cccc2ccccc12)C(=O)N[C@@H](C(C)C)[C@@H](O)c1c(-c2ccccc2)c1=O` [88 (No. 259), 2-[(1S, 2S)-1-hydroxy-3-methyl-2-{(S)-4-methyl-2-(1-naphtylsulfonylamino)valerylamino}butyl]-3-phenylcyclopropenone], the IC50 on m-calpain (setting [2]) worked out at 0.65 µM.

For `CC(C)C[C@H](NS(=O)(=O)c1ccc2ccccc2c1)C(=O)N[C@@H](C(C)C)[C@@H](O)c1c(-c2ccccc2)c1=O` [89 (No. 260), 2-[(1S, 2S)-1-hydroxy-3-methyl-2-{(S)-4-methyl-2-(2-naphtylsulfonylamino)valerylamino}butyl]-3-phenylcyclopropenone], on m-calpain (setting [2]), the concentration for half-maximal inhibition (IC50) was 0.46 µM.

In the case of `CC(C)C[C@H](NS(=O)(=O)c1cccc2cccnc12)C(=O)N[C@@H](C(C)C)[C@@H](O)c1c(-c2ccccc2)c1=O` [91 (No. 265), 2-[(1S, 2S)-1-hydroxy-3-methyl-2-{(S)-4-methyl-2-(8-quinolylsulfonylamino)valerylamino}butyl]-3-phenylcyclopropenone], the IC50 at m-calpain (setting [2]) was 1.9 µM.

For `CCCC[C@H](NC(=O)[C@H](CC(C)C)NC(=O)OCC1CCCCC1)C(O)c1c(-c2ccccc2)c1=O` (stereo partly drawn) [94 (No. 280), 2-[(2S)-2-((S)-2-cyclohexylmethoxycarbonylamino-4-methylvalerylamino)-1-hydroxyhexyl]-3-phenylcyclopropenone], the IC50 is 0.062 µM on cathepsin L, 0.074 µM on papain, 2.7 µM at m-calpain (setting [1]) and 1 µM at cathepsin B.

With `CCCC[C@H](NC(=O)[C@H](CC(C)C)NC(=O)OCc1ccccc1)C(O)c1c(-c2ccccc2)c1=O` (stereo partly drawn) [95 (No. 281), 2-[(2S)-2-((S)-2-benzyloxycarbonylamino-4-methylvalerylamino]-1-hydroxyhexyl]-3-phenylcyclopropenone], the IC50 was 1.27 µM on cathepsin L, 13 µM on papain, 3 µM at m-calpain (setting [1]) and 11 µM on cathepsin B.

`CC(C)C[C@H](NC(=O)OCC1CCCCC1)C(=O)N[C@@H](C(C)C)[C@@H](O)c1c(-c2ccc(F)cc2)c1=O` [105 (No. 311), 2-[(1S, 2S)-2-((S)-2-cyclohexylmethoxycarbonylamino-4-methylvalerylamino)-1-hydroxy-3-methylbutyl]-3-(4-fluorophenyl)cyclopropenone]: the IC50 on m-calpain (setting [2]) came to 1.5 µM.

For the compound `CC(C)C[C@H](NS(=O)(=O)c1ccccc1)C(=O)N[C@@H](C(C)C)[C@@H](O)c1c(-c2ccc(F)cc2)c1=O` [111 (No. 317), 2-(4-fluorophenyl)-3-[(1S, 2S)-1-hydroxy-3-methyl-2-((S)-4-methyl-2-phenylsulfonylaminovalerylamino)butyl]cyclopropenone], the half-maximal inhibitory concentration (IC50) at m-calpain (setting [2]) was 2.9 µM.

Regarding `CCCC[C@H](NC(=O)[C@H](CC(C)C)NC(=O)OCc1ccccc1)C(O)c1c(-c2ccc(F)cc2)c1=O` (stereo partly drawn) [112 (No. 319), 2[(2S)-2-((S)-2-benzyloxycarbonylamino-4-methylvalerylamino)-1-hydroxyhexyl]-3-(4-fluorophenyl)cyclopropenone], the IC50 on m-calpain (setting [2]) is 4.3 µM.

As to `CC(C)C[C@H](NC(=O)OCC1CCCCC1)C(=O)N[C@@H](CC(C)C)C(=O)N[C@@H](C(C)C)[C@@H](O)c1c(-c2ccccc2)c1=O` [118 (No. 467), 2-[(1S, 2S)-2-{(S)-2-((S)-2-cyclohexylmethoxycarbonylamino-4-methylvalerylamino)-4-methylvalerylamino}-1-hydroxy-3-methylbutyl]-3-phenylcyclopropenone], at m-calpain (setting [2]), the IC50 was 0.84 µM.

As to `CC(C)C[C@H](NC(=O)[C@H](Cc1ccccc1)NC(=O)OCc1ccccc1)C(=O)N[C@@H](C(C)C)[C@@H](O)c1c(-c2ccccc2)c1=O` [120 (No. 478), 2-[(1S, 2S)-2-{(S)-2-((S)-2-benzyloxycarbonylamino-3-phenylpropionylamino)-4-methylvalerylamino}-1-hydroxy-3-methylbutyl]-3-phenylcyclopropenone], the IC50 at m-calpain (setting [2]) amounted to 1.2 µM.
